ChEMBL document CHEMBL1201862, “PubChem BioAssay data set” (2004)
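Protocol summary: plate cells (96-well), add compound at 5 concentrations, incubate 48 h, interpolate endpoints linearly. The concentration for 50% growth inhibition is given as GI50.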 Active and inactive are the calls of the source. No stated cut-off is given here; in the data, active = GI50 up to about 1.1 µM and inactive = higher.

How the values were obtained:
Experiment in all cases: inhibition of tumour cell growth, NCI panel, 48 h
SK-OV-3 = system: SK-OV-3
SK-MEL-28 = system: SK-MEL-28
PC-3 = system: PC-3
M14 = system: M14
U-251 = system: U-251
OVCAR-3 = system: OVCAR-3
TK-10 = system: TK-10
NCI-H226 = system: NCI-H226
NCI-H23 = system: NCI-H23
Hs-578T = system: Hs-578T
MOLT-4 = system: MOLT-4
NCI-H460 = system: NCI-H460
786-0 = system: 786-0
SF-539 = system: SF-539
OVCAR-8 = system: OVCAR-8
LOX IMVI = system: LOX IMVI
SNB-19 = system: SNB-19
NCI/ADR-RES = system: NCI/ADR-RES
BT-549 = system: BT-549
KM12 = system: KM12
SK-MEL-2 = system: SK-MEL-2
MCF7 = system: MCF7
SR = system: SR
CCRF-CEM = system: CCRF-CEM
HCT-116 = system: HCT-116
SN12C = system: SN12C
SF-268 = system: SF-268
SF-295 = system: SF-295
UACC-62 = system: UACC-62
A549 = system: A549
UO-31 = system: UO-31
UACC-257 = system: UACC-257
SK-MEL-5 = system: SK-MEL-5
HOP-62 = system: HOP-62
OVCAR-5 = system: OVCAR-5
ACHN = system: ACHN
OVCAR-4 = system: OVCAR-4
MDA-MB-435 = system: MDA-MB-435
RPMI-8226 = system: RPMI-8226
DU-145 = system: DU-145
RXF 393 = system: RXF 393
MDA-MB-231 = system: MDA-MB-231
T47D = system: T47D
IGROV-1 = system: IGROV-1
SW-620 = system: SW-620
HT-29 = system: HT-29
HCT-15 = system: HCT-15
HL-60 = system: HL-60
Malme-3M = system: Malme-3M
A498 = system: A498
CAKI-1 = system: CAKI-1
MDA-N = system: MDA-N
EKVX = system: EKVX
COLO 205 = system: COLO 205
HCC 2998 = system: HCC 2998
NCI-H522 = system: NCI-H522
SNB-75 = system: SNB-75
K562 = system: K562
HOP-92 = system: HOP-92

Measured: GI50

COC(=O)/C=C/CC(=O)NS(C)(=O)=O
> 10 µM: HCT-15
inactive: SK-OV-3 > 10 µM | SK-MEL-28 > 10 µM | PC-3 > 10 µM | M14 > 10 µM | U-251 > 10 µM | OVCAR-3 > 10 µM | TK-10 > 10 µM | NCI-H226 > 10 µM | NCI-H23 > 10 µM | Hs-578T > 10 µM | MOLT-4 > 10 µM | NCI-H460 > 10 µM | 786-0 > 10 µM | SF-539 > 10 µM | OVCAR-8 > 10 µM | LOX IMVI > 10 µM | SNB-19 > 10 µM | NCI/ADR-RES > 10 µM | BT-549 > 10 µM | KM12 > 10 µM | SK-MEL-2 > 10 µM | MCF7 > 10 µM | SR > 10 µM | CCRF-CEM > 10 µM | HCT-116 > 10 µM | SN12C > 10 µM | SF-268 > 10 µM | SF-295 > 10 µM | UACC-62 > 10 µM | A549 > 10 µM | UO-31 > 10 µM | UACC-257 > 10 µM | SK-MEL-5 > 10 µM | HOP-62 > 10 µM | OVCAR-5 > 10 µM | ACHN > 10 µM | OVCAR-4 > 10 µM | MDA-MB-435 > 10 µM | RPMI-8226 > 10 µM | DU-145 > 10 µM | RXF 393 > 10 µM | MDA-MB-231 > 10 µM | T47D > 10 µM | IGROV-1 > 10 µM | SW-620 > 10 µM | HT-29 > 10 µM | HL-60 > 10 µM | Malme-3M > 10 µM | A498 > 10 µM | CAKI-1 > 10 µM | MDA-N > 10 µM | EKVX > 10 µM | COLO 205 > 10 µM | HCC 2998 > 10 µM | NCI-H522 > 10 µM

CCOC(=O)c1ccc(C(=O)/C(C(=O)OC(C)(C)C)=C2\CCCN2C)n1C
inactive: SK-OV-3 16.6 µM | SK-MEL-28 > 100 µM | PC-3 73.1 µM | M14 57.8 µM | U-251 > 100 µM | OVCAR-3 37.8 µM | TK-10 > 100 µM | NCI-H226 > 100 µM | NCI-H23 73.3 µM | Hs-578T > 100 µM | MOLT-4 33.8 µM | NCI-H460 94.6 µM | 786-0 > 100 µM | SF-539 > 100 µM | OVCAR-8 80.4 µM | LOX IMVI 87.3 µM | SNB-19 > 100 µM | NCI/ADR-RES 34.6 µM | BT-549 39.7 µM | KM12 55.3 µM | SK-MEL-2 > 100 µM | MCF7 55.8 µM | SR 31.6 µM | CCRF-CEM 72.9 µM | HCT-116 48.5 µM | SN12C > 100 µM | SF-268 > 100 µM | SF-295 28.7 µM | UACC-62 44.2 µM | A549 61.2 µM | UO-31 90.4 µM | UACC-257 54 µM | SK-MEL-5 21.3 µM | HOP-62 95.3 µM | OVCAR-5 > 100 µM | ACHN 73.5 µM | OVCAR-4 46.6 µM | MDA-MB-435 69.7 µM | RPMI-8226 69.7 µM | DU-145 > 100 µM | RXF 393 > 100 µM | MDA-MB-231 80 µM | T47D 29.2 µM | IGROV-1 > 100 µM | SNB-75 15.9 µM | SW-620 > 100 µM | HT-29 45.2 µM | HL-60 27.4 µM | Malme-3M > 100 µM | A498 77.1 µM | CAKI-1 > 100 µM | MDA-N 58.3 µM | EKVX 33.4 µM | COLO 205 96.8 µM | K562 42.1 µM | HCC 2998 > 100 µM
95.1 µM: HCT-15

CCOC(=O)C(C(N)=O)C1=Nc2cc([N+](=O)[O-])ccc2N/C1=C\C(=O)c1ccc(C)cc1 (stereo unspecified)
28.8 µM: HCT-15
inactive: SK-OV-3 18.3 µM | SK-MEL-28 29.3 µM | PC-3 20 µM | M14 38.3 µM | U-251 15.5 µM | OVCAR-3 15.8 µM | TK-10 14.8 µM | NCI-H226 27.4 µM | NCI-H23 16.9 µM | Hs-578T 21.6 µM | NCI-H460 22.2 µM | 786-0 13.1 µM | SF-539 17.1 µM | OVCAR-8 19 µM | LOX IMVI 23.3 µM | SNB-19 20.7 µM | NCI/ADR-RES 22.1 µM | BT-549 22.6 µM | KM12 31.2 µM | SK-MEL-2 20.9 µM | MCF7 22.4 µM | SR 7.55 µM | CCRF-CEM 23.6 µM | HCT-116 20.7 µM | SN12C 26.2 µM | SF-268 15.1 µM | SF-295 19.4 µM | UACC-62 30.3 µM | A549 26.9 µM | UO-31 17.6 µM | UACC-257 39.5 µM | SK-MEL-5 33.9 µM | HOP-62 16.8 µM | OVCAR-5 70.8 µM | ACHN 21.3 µM | OVCAR-4 43.6 µM | MDA-MB-435 39.4 µM | RPMI-8226 18.1 µM | HOP-92 18.1 µM | DU-145 32.6 µM | RXF 393 17.6 µM | MDA-MB-231 18.4 µM | T47D 60.1 µM | IGROV-1 17.4 µM | SNB-75 16.1 µM | SW-620 28.7 µM | HT-29 33.1 µM | Malme-3M 35.3 µM | A498 27.8 µM | CAKI-1 46.6 µM | MDA-N 43.3 µM | EKVX 26.7 µM | COLO 205 27.2 µM | K562 2.46 µM | HCC 2998 23.3 µM | NCI-H522 17.7 µM
active: MOLT-4 0.522 µM

O=c1[nH]c(=O)n(C2C(CO)OC(CO)C2O)cc1F (stereo unspecified)
> 100 µM: HCT-15
inactive: SK-OV-3 > 100 µM | SK-MEL-28 > 100 µM | PC-3 > 100 µM | M14 > 100 µM | U-251 > 100 µM | OVCAR-3 > 100 µM | TK-10 > 100 µM | NCI-H226 > 100 µM | NCI-H23 > 100 µM | Hs-578T > 100 µM | MOLT-4 > 100 µM | NCI-H460 > 100 µM | 786-0 > 100 µM | SF-539 > 100 µM | OVCAR-8 > 100 µM | LOX IMVI > 100 µM | SNB-19 > 100 µM | NCI/ADR-RES > 100 µM | BT-549 > 100 µM | KM12 > 100 µM | SK-MEL-2 > 100 µM | MCF7 > 100 µM | SR > 100 µM | CCRF-CEM > 100 µM | HCT-116 > 100 µM | SN12C > 100 µM | SF-268 > 100 µM | SF-295 > 100 µM | UACC-62 > 100 µM | A549 > 100 µM | UO-31 > 100 µM | UACC-257 > 100 µM | SK-MEL-5 > 100 µM | HOP-62 > 100 µM | OVCAR-5 > 100 µM | ACHN > 100 µM | OVCAR-4 > 100 µM | MDA-MB-435 > 100 µM | RPMI-8226 > 100 µM | HOP-92 > 100 µM | DU-145 > 100 µM | RXF 393 > 100 µM | MDA-MB-231 > 100 µM | T47D > 100 µM | IGROV-1 > 100 µM | SNB-75 > 100 µM | SW-620 > 100 µM | HT-29 > 100 µM | Malme-3M > 100 µM | A498 > 100 µM | CAKI-1 > 100 µM | MDA-N > 100 µM | EKVX > 100 µM | COLO 205 > 100 µM | K562 > 100 µM | HCC 2998 > 100 µM | NCI-H522 > 100 µM

Sc1nnc(C23CC4CC(CC(C4)C2)C3)n1-c1ccc(Cl)cc1
inactive: SK-OV-3 20 µM | SK-MEL-28 11.9 µM | PC-3 11.2 µM | M14 15.1 µM | U-251 9.18 µM | OVCAR-3 10.8 µM | TK-10 22.3 µM | NCI-H226 23.3 µM | NCI-H23 27.5 µM | Hs-578T 22.1 µM | MOLT-4 8.41 µM | NCI-H460 5.69 µM | 786-0 14.6 µM | SF-539 22.7 µM | OVCAR-8 15.8 µM | LOX IMVI 4.54 µM | SNB-19 27.2 µM | NCI/ADR-RES 15.5 µM | BT-549 12.3 µM | KM12 14.6 µM | SK-MEL-2 10.9 µM | MCF7 13.1 µM | SR 3.07 µM | CCRF-CEM 4.36 µM | HCT-116 7.59 µM | SN12C 14.1 µM | SF-268 11.6 µM | SF-295 11.1 µM | UACC-62 8.26 µM | A549 8.34 µM | UO-31 13.7 µM | UACC-257 22.5 µM | SK-MEL-5 3.3 µM | HOP-62 13 µM | OVCAR-5 35.4 µM | ACHN 15.4 µM | OVCAR-4 16.9 µM | MDA-MB-435 12.9 µM | RPMI-8226 8.89 µM | DU-145 20.1 µM | RXF 393 14.2 µM | MDA-MB-231 21.4 µM | T47D 17.5 µM | IGROV-1 8.75 µM | SNB-75 22.3 µM | SW-620 16.1 µM | HT-29 14.6 µM | HL-60 2.77 µM | Malme-3M 13.5 µM | A498 19.1 µM | CAKI-1 1.96 µM | MDA-N 15.6 µM | COLO 205 13.2 µM | K562 9.59 µM | HCC 2998 13.7 µM | NCI-H522 20.2 µM
7.83 µM: HCT-15
